# Laboratory results reported in patent US20040127571A1 (UNIVERSITY OF SOUTH FLORIDA, priority 2002, published 2004).
# How the values were obtained:
# histones (H3), p21 = assay: Histone acetylation and p21 expression after SAHA (FIG. 2B); type: cell-based
# Source text: (§1) Moreover, exposure to SAHA increases the acetylation of histones (H3) and the expression of p21 (FIG. 2B). […] SAHA downregulates the levels and auto-phosphorylation, the addition of a phosphate group, of Bcr-Abl (FIG. 2C).
# p27 in K562 cells = assay: p27 expression in K562 cells after SAHA (FIG. 2B); type: cell-based
# Source text: as §1
# p27 (gene) = conditions: previously shown; cited from earlier work
# Bcr-Abl = Bcr-Abl levels and auto-phosphorylation after SAHA (FIG. 2C); type: cell-based
# Source text: as §1
# [1] = test system: imatinib refractory (resistant) cells; assay: Apoptosis of imatinib refractory cells after SAHA; type: cell-based
# K562 cells = assay: Apoptosis of K562 cells after SAHA exposure; type: cell-based; conditions: 1.0 to 10.0 uM SAHA for 48 hours; FIG. 2A
# p27 in LAMA cells = assay: p27 expression in LAMA cells after SAHA (FIG. 2B); type: cell-based
# Source text: as §1
# Lama-84 cells = assay: Apoptosis of Lama-84 cells after SAHA exposure; type: cell-based; conditions: 1.0 to 10.0 uM SAHA for 48 hours; FIG. 2A
# K562 = assay: Cell cycle distribution of K562 cells after SAHA; type: cell-based; conditions: 1.0 to 5.0 uM SAHA for 48 hours; dose-dependent
# Procedure: Treatment with 1.0 to 5.0 uM SAHA for 48 hours increased the percentage of K562 in the G1 (the gap in the cell division cycle between mitosis and synthesis) phase of the cell cycle in a dose-dependent manner.
compound,measurement,setting,value
"O=C(CCCCCCC(=O)Nc1ccccc1)NO [SAHA, Suberoylanilide Hydromaxic Acid]",acetylation of histones (H3),"histones (H3), p21",increases
same,expression of p21,"histones (H3), p21",increases
same,p27 expression,p27 in K562 cells,induced p27 expression
same,acetylation of histones of the chromatin associated with p27 (gene) / its transcription,p27 (gene),not to induce acetylation
same,auto-phosphorylation of Bcr-Abl,Bcr-Abl,downregulates
same,levels of Bcr-Abl,Bcr-Abl,downregulates
same,apoptosis in imatinib refractory (resistant) cells,[1],induces apoptosis
same,apoptosis of K562 cells,K562 cells,dose-dependent increase
same,p27 expression,p27 in LAMA cells,induced p27 expression
same,apoptosis of Lama-84 cells,Lama-84 cells,dose-dependent increase
same,percentage of K562 in the G1 phase of the cell cycle,K562,increased
